Consider 41 molecules from patent US11969423B2, “Compounds” (GLAXOSMITHKLINE INTELLECTUAL PROPERTY DEVELOPMENT LIMITED, priority 2017, dated 2024).

Bounds are passed on as bounds.

In data set [1] the test system is M. tuberculosis H37Rv-GFP. In kind it is cell-based, Mycobacterium tuberculosis. As to conditions: read-out: EC50_H37Rv.
Data set [2] concerns PPAR marker. The following applies: male, Swiss (Crl:CD-1(ICR)), mouse.
For data set [3] the following is noted: male, Swiss (Crl:CD-1(ICR)), mouse, in vivo.
For data set [4] the following is noted: male, SD, in vivo. As to the method: Male SD rats (n=3/compound/route) were used for single intravenous and oral dose PK studies. Compounds were administered intravenously (infusion over 30 minutes) as a solution (Formulation: 5% DMSO: 20% Encapsine in saline; target dose 1 mg/kg) and orally as suspensions (Formulation: 1% Methyl Cellulose; target dose 5 mg/kg). After dosing, blood samples ([…]) were collected. Sampling times were the following:
0.25, 0.5 (just before end of infusion), 0.58, 0.75, 1, 1.5, 2, 3, 5, 7, and 24 hours; n=3 rats (intravenous infusion administration) 0.25, 0.5, 1, 2, 4, 6, 8, and 24 hours; n=3 rats (oral gavage administration)
All the blood samples were diluted with 25 μL of water and stored at −80° C. until analysis. Rat blood samples were analyzed for each compound using a method upon protein precipitation followed by LC-MS/MS analysis. All pharmacokinetic parameters were obtained by non-compartmental analysis of the different blood concentration-time profiles using WinNonLin Phoenix Version 6.3.

Take `O=C(CCC(F)(F)F)N1CCC(c2cc(C(F)(F)F)ccn2)CC1` [Example 6, 4,4,4-trifluoro-1-[4-[4-(trifluoromethyl)-2-pyridyl]-1-piperidyl]butan-1-one]: in data set [1], the EC50 is below 50 nM.

Take `O=C(CCC(F)(F)F)N1CCC(F)(c2cncc(Cl)c2)CC1` [Example 29, 1-(4-(5-chloropyridin-3-yl)-4-fluoropiperidin-1-yl)-4,4,4-trifluorobutan-1-one]: the EC50 in data set [1] is below 50 nM.

On to `O=C(CCC(F)(F)F)N1CCC(c2cncc(C(F)(F)F)n2)CC1` [Example 24, 4,4,4-trifluoro-1-(4-(6-(trifluoromethyl)pyrazin-2-yl)piperidin-1-yl)butan-1-one], for which the EC50 in data set [1] lay within 50 to 250 nM.

Take `O=C(CCC(F)(F)F)N1CCC(c2cncc(C(F)(F)F)c2)CC1` [Example 7, 4,4,4-trifluoro-1-[4-[5-(trifluoromethyl)-3-pyridyl]-1-piperidyl]butan-1-one]: in data set [1], the EC50 was below 50 nM.

For the molecule `O=C(CCC(F)(F)F)N1CCC(c2cnc(F)c(F)c2)CC1` [Example 23, 1-(4-(5,6-difluoropyridin-3-yl)piperidin-1-yl)-4,4,4-trifluorobutan-1-one], the EC50 in data set [1] was below 50 nM.

For the molecule `O=C(CCC(F)(F)F)N1CCC(c2cncnc2)CC1` [Example 16], the EC50 in data set [1] lay within 1000 to 10000 nM.

Regarding `O=C(CCC(F)(F)F)N1CCC(c2cccc(Cl)n2)CC1` [Example 27, 1-(4-(6-chloropyridin-2-yl)piperidin-1-yl)-4,4,4-trifluorobutan-1-one], the EC50 in data set [1] was 50 to 250 nM.

In the case of `O=C(CCC(F)(F)F)N1CCC(c2ccc(C(F)(F)F)nc2)CC1` [Example 5, 4,4,4-trifluoro-1-[4-[6-(trifluoromethyl)-3-pyridyl]-1-piperidyl]butan-1-one], in data set [1], the EC50 is 500 to 1000 nM.

As to `O=C(CCC(F)(F)F)N1CCC(F)(c2cc(C(F)(F)F)ccn2)CC1` [Example 39, 4,4,4-trifluoro-1-[4-fluoro-4-[4-(trifluoromethyl)-2-pyridyl]-1-piperidyl]butan-1-one], the EC50 in data set [1] is 50 to 250 nM.

For the molecule `Cc1cc(C2CCN(C(=O)CCC(F)(F)F)CC2)ccn1` [Example 22, 4,4,4-trifluoro-1-(4-(2-methylpyridin-4-yl)piperidin-1-yl)butan-1-one], in data set [1], the EC50 is below 50 nM.

`O=C(CCC(F)(F)F)N1CCC(F)(c2cncc(C(F)(F)F)c2)CC1` [Example 34, 4,4,4-trifluoro-1-(4-fluoro-4-(5-(trifluoromethyl)pyridin-3-yl)piperidin-1-yl)butan-1-one]: in data set [1], the EC50 is below 50 nM.

Consider `O=C(CCC(F)(F)F)N1CCC(c2ncccn2)CC1` [Example 28, 4,4,4-trifluoro-1-[4-(pyrimidin-2-yl)piperidin-1-yl]butan-1-one], for which the EC50 in data set [1] was 1000 to 10000 nM.

Take `O=C(CCC(F)(F)F)N1CCC(c2cccnn2)CC1` [Example 19, 4,4,4-trifluoro-1-[4-(pyridazin-3-yl)piperidin-1-yl]butan-1-one]: the EC50 in data set [1] was 1000 to 10000 nM.

`O=C(CCC(F)(F)F)N1CCC(c2cncc(Cl)c2)CC1` [Example 30, 1-(4-(5-chloropyridin-3-yl)piperidin-1-yl)-4,4,4-trifluorobutan-1-one]: in data set [2], the “In vivo PPAR marker fold increase” value is below 2 fold. Besides, in data set [3], the “Mice liver hypertrophy (%)” value is recorded as 2%. Further, in data set [1], the EC50 is below 50 nM. In addition, the “F % (rat, 5 mg/kg)” value in data set [4] came out at 77%.

With `COc1cncc(C2CCN(C(=O)CCC(F)(F)F)CC2)c1` [Example 12, 4,4,4-trifluoro-1-[4-(5-methoxy-3-pyridyl)-1-piperidyl]butan-1-one], the EC50 in data set [1] is 500 to 1000 nM.

Turning to `O=C(CCC(F)(F)F)N1CCC(F)(c2cncc(Cl)n2)CC1` [Example 36, 1-(4-(6-chloropyrazin-2-yl)-4-fluoropiperidin-1-yl)-4,4,4-trifluorobutan-1-one], the EC50 in data set [1] fell in the range of 50 to 250 nM.

As for `COc1ccc(C2CCN(C(=O)CCC(F)(F)F)CC2)cn1` [Example 10, 4,4,4-trifluoro-1-[4-(6-methoxy-3-pyridyl)-1-piperidyl]butan-1-one], the EC50 in data set [1] lay in the range of 50 to 250 nM.

Consider `O=C(CCC(F)(F)F)N1CCC(F)(c2ccnc(Cl)c2)CC1` [Example 41], for which, in data set [1], the EC50 is below 50 nM.

Regarding `O=C(CCC(F)(F)F)N1CCC(c2cncc(Cl)n2)CC1` [Example 32, 1-(4-(6-chloropyrazin-2-yl)piperidin-1-yl)-4,4,4-trifluorobutan-1-one], the EC50 in data set [1] is below 50 nM.

Take `O=C(CCC(F)(F)F)N1CCC(c2cncc(F)c2)CC1` [Example 3, 4,4,4-trifluoro-1-[4-(5-fluoro-3-pyridyl)-1-piperidyl]butan-1-one]: in data set [1], the EC50 is 50 to 250 nM.

In the case of `O=C(CCC(F)(F)F)N1CCC(c2cncc(Cl)c2)C1` (centres unmarked) [Example 38, 1-(3-(5-chloropyridin-3-yl)pyrrolidin-1-yl)-4,4,4-trifluorobutan-1-one], in data set [1], the EC50 was below 50 nM.

On to `O=C(CCCC(F)(F)F)N1CCC(c2cncc(Cl)c2)CC1` [Example 31, 1-(4-(5-chloropyridin-3-yl)piperidin-1-yl)-5,5,5-trifluoropentan-1-one], for which the EC50 in data set [1] fell in the range of 50 to 250 nM.

For the molecule `O=C(CCC(F)(F)F)N1CCC(c2ccc(F)nc2)CC1` [Example 4, 4,4,4-trifluoro-1-[4-(6-fluoro-3-pyridyl)-1-piperidyl]butan-1-one], the EC50 in data set [1] fell in the range of 50 to 250 nM.

Regarding `O=C(CCC(F)(F)F)N1CCC(c2cnc(C(F)(F)F)cn2)CC1` [Example 21, 4,4,4-trifluoro-1-(4-(5-(trifluoromethyl)pyrazin-2-yl)piperidin-1-yl)butan-1-one], the EC50 in data set [1] lay in the range of 500 to 1000 nM.

Turning to `O=C(CCC(F)(F)F)N1CCC(c2ccnc(Cl)c2)CC1` [Example 25, 1-(4-(2-chloropyridin-4-yl)piperidin-1-yl)-4,4,4-trifluorobutan-1-one], the EC50 in data set [1] was below 50 nM.

`O=C(CCC(F)(F)F)N1CCC(F)(c2ccnc(C(F)(F)F)c2)CC1` [Example 35, 4,4,4-trifluoro-1-(4-fluoro-4-(2-(trifluoromethyl)pyridin-4-yl)piperidin-1-yl)butan-1-one]: the EC50 in data set [1] was below 50 nM.

Consider `O=C(CCC(F)(F)F)N1CCC(c2nccc(C(F)(F)F)n2)CC1` [Example 15], for which the EC50 in data set [1] lay within 1000 to 10000 nM.

Take `O=C(CCC(F)(F)F)N1CCC(c2ccc(F)cn2)CC1` [Example 17, 4,4,4-trifluoro-1-[4-(5-fluoro-2-pyridyl)-1-piperidyl]butan-1-one]: the EC50 in data set [1] was below 50 nM.

For `O=C(CCC(F)(F)F)N1CCC(c2ccncc2F)CC1` [Example 26, 4,4,4-trifluoro-1-(4-(3-fluoropyridin-4-yl)piperidin-1-yl)butan-1-one], the EC50 in data set [1] lay in the range of 50 to 250 nM.

For `O=C(CCC(F)(F)F)N1CCC(c2cnccn2)CC1` [Example 1, 4,4,4-trifluoro-1-(4-pyrazin-2-yl-1-piperidyl)butan-1-one], the EC50 in data set [1] is 500 to 1000 nM.

On to `O=C(CCC(F)(F)F)N1CCC(c2ccnc(C(F)(F)F)c2)CC1` [Example 18, 4,4,4-trifluoro-1-(4-(2-(trifluoromethyl)pyridin-4-yl)piperidin-1-yl)butan-1-one], for which the “In vivo PPAR marker fold increase” value in data set [2] was below 6 fold. The “Mice liver hypertrophy (%)” value in data set [3] was 6%. In addition, in data set [1], the EC50 was below 50 nM. Further, the “F % (rat, 5 mg/kg)” value in data set [4] is on record as 75%.

In the case of `O=C(CCC(F)(F)F)N1CCC(c2cccc(F)n2)CC1` [Example 9, 4,4,4-trifluoro-1-[4-(6-fluoro-2-pyridyl)-1-piperidyl]butan-1-one], in data set [1], the EC50 fell in the range of 50 to 250 nM.

Consider `O=C(CCC(F)(F)F)N1CCC(F)(c2ccc(F)nc2)CC1` [Example 40], for which the EC50 in data set [1] lay in the range of 50 to 250 nM.

Turning to `O=C(CCC(F)(F)F)N1CCC(c2ccc(F)nc2F)CC1` [Example 14, 1-[4-(2,6-difluoro-3-pyridyl)-1-piperidyl]-4,4,4-trifluoro-butan-1-one], the EC50 in data set [1] was in the range of 50 to 250 nM.

As to `O=C(CCC(F)(F)F)N1CCC(c2ncc(F)cc2F)CC1` [Example 13, 1-[4-(3,5-difluoro-2-pyridyl)-1-piperidyl]-4,4,4-trifluoro-butan-1-one], the EC50 in data set [1] fell in the range of 50 to 250 nM.

Consider `O=C(CCC(F)(F)F)N1CCC(F)(c2cccnc2)CC1` [Example 2, 4,4,4-trifluoro-1-[4-fluoro-4-(3-pyridyl)-1-piperidyl]butan-1-one], for which, in data set [1], the EC50 was below 50 nM.

`O=C(CCC(F)(F)F)N1CCC(c2cccc(C(F)(F)F)n2)CC1` [Example 8, 4,4,4-trifluoro-1-[4-[6-(trifluoromethyl)-2-pyridyl]-1-piperidyl]butan-1-one]: the EC50 in data set [1] was 50 to 250 nM.

Take `O=C(CCC(F)(F)F)N1CCC(c2ccnc(F)c2)CC1` [Example 20, 4,4,4-trifluoro-1-(4-(2-fluoropyridin-4-yl)piperidin-1-yl)butan-1-one]: the EC50 in data set [1] was below 50 nM.

In the case of `O=C(CCC(F)(F)F)N1CCC(F)(c2ccccn2)CC1` [Example 33, 4,4,4-trifluoro-1-(4-fluoro-4-(pyridin-2-yl)piperidin-1-yl)butan-1-one], the EC50 in data set [1] lay within 50 to 250 nM.

On to `O=C(CCC(F)(F)F)N1CCC(c2cccnc2C(F)(F)F)CC1` [Example 11, 4,4,4-trifluoro-1-[4-[2-(trifluoromethyl)-3-pyridyl]-1-piperidyl]butan-1-one], for which the EC50 in data set [1] fell in the range of 1000 to 10000 nM.

In the case of `O=C(CCC(F)(F)F)N1CCC(F)(c2ccnc(F)c2)CC1` [Example 37, 4,4,4-trifluoro-1-(4-fluoro-4-(2-fluoropyridin-4-yl)piperidin-1-yl)butan-1-one], the EC50 in data set [1] is below 50 nM.
